Reference: patent publication US4416884A, “Piperazinylbenzoheterocyclic compounds” (Otsuka Pharmaceutical Co., Ltd., priority 1978, dated 1983)
Values after ≈ are worked out from the molar mass of the structure shown. Like-named read-outs stand apart in the source and are kept apart here.

How the values were obtained:
Type in all cases: cell-based
[1] = system: Test Organism 21 (Bacillus subtilis PCI 219); experiment: influence of the addition of horse serum on the MIC
[2] = system: Test Organism 17 (Pseudomonas putida IFO 13696); experiment: as above
[3] = system: Aeromonas salmonicida IFO 12718; experiment: antimicrobial activity on bacteria which cause infectious diseases in fish
In short: (§1)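 MICs (mcg/ml) were determined by serial dilution on Heart Infusion agar plates. Inocula were prepared at 1×10^8 cells/ml (O.D. 660 mμ=0.07 to 0.16) and at 1×10^6 cells/ml, the latter by dilution of the former.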

[4] = system: Pseudomonas fluorescens IFO 12568; experiment: as above
In short: as §1

[5] = system: Aeromonas salmonicida IFO 12659; experiment: as above
In short: as §1

[6] = system: Vibrio anguillarum IFO 12710; experiment: as above
In short: as §1

[7] = system: Pseudomonas fluorescens IFO 12180; experiment: as above; settings: IFO12180, read-out: Minimum Inhibitory Concentration
In short: as §1

[8] = system: Aeromonas hydrophila IFO 12658; experiment: as above
In short: as §1

[9] = system: Aeromonas hydrophila IFO 12981; experiment: as above
In short: as §1

[10] = system: Vibrio anguillarum IFO 13266; experiment: as above
In short: as §1

[11] = system: Test Organism 2 (Escherichia Coli NIHJ JC-2 (IFO 12734)); experiment: influence of the addition of horse serum on the MIC
[12] = system: Streptococcus pneumoniae Type II; experiment: antimicrobial activity, serial dilution method on agar plate
In short: (§2)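 MIC (mcg/ml) read on Heart Infusion agar plates carrying serial compound dilutions. Organisms inoculated at two densities: 1×10^8 cells/ml, set by O.D. 660 mμ=0.07 to 0.16, and a 1×10^6 cells/ml dilution of that suspension.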

[13] = system: Proteus morganii IID Kono; experiment: as above; settings: Morganella morganii
In short: as §2

[14] = system: Pseudomonas aeruginosa ATCC 10145; experiment: as above
In short: as §2

Escherichia Coli NIHJ = experiment: as above
In short: as §2

[15] = system: Streptococcus pyogenes IID S-23; experiment: as above
In short: as §2

Hafnia alvei IFO 3731 = experiment: as above
In short: as §2

[16] = system: Yersinia enterocolitica 0-3; experiment: as above
In short: as §2

[17] = system: Pseudomonas maltophilia IFO 12692; experiment: as above; settings: Stenotrophomonas maltophilia, IFO12692, read-out: Minimum Inhibitory Concentration
In short: as §2

[18] = system: Test Organism 27 (Streptococcus pneumoniae Type III); experiment: influence of the addition of horse serum on the MIC
[19] = system: Test Organism 16 (Pseudomonas maltophilia IFO 12692); experiment: as above; settings: Stenotrophomonas maltophilia
[20] = read-out: Minimum Inhibitory Concentration, horse serum 0%, inoculum 10^6
[21] = read-out: Minimum Inhibitory Concentration, horse serum 0%, inoculum 10^8
[22] = read-out: Minimum Inhibitory Concentration, horse serum 10%, inoculum 10^6
[23] = read-out: Minimum Inhibitory Concentration, horse serum 10%, inoculum 10^8
[24] = read-out: Minimum Inhibitory Concentration, horse serum 20%, inoculum 10^6
[25] = read-out: Minimum Inhibitory Concentration, horse serum 20%, inoculum 10^8
[26] = read-out: Minimum Inhibitory Concentration, horse serum 40%, inoculum 10^6
[27] = read-out: Minimum Inhibitory Concentration, horse serum 40%, inoculum 10^8
[28] = read-out: Minimum Inhibitory Concentration, inoculum 1 × 10^6 cells/ml
[29] = read-out: Minimum Inhibitory Concentration, inoculum 1 × 10^8 cells/ml

CC1Cc2c(N3CCNCC3)ccc3c(=O)c(C(=O)O)cn1c23 (stereo not shown) [C]
MIC [1, 20]: 1.6 µg/mL (≈ 5.11 µM)
MIC [1, 21]: 3.1 µg/mL (≈ 9.89 µM)
MIC [1, 22]: 1.6 µg/mL (≈ 5.11 µM)
MIC [1, 23]: 1.6 µg/mL (≈ 5.11 µM)
MIC [1, 24]: 1.6 µg/mL (≈ 5.11 µM)
MIC [1, 25]: 1.6 µg/mL (≈ 5.11 µM)
MIC [1, 26]: 0.4 µg/mL (≈ 1.28 µM)
MIC [1, 27]: 0.4 µg/mL (≈ 1.28 µM)
MIC ([2]; IFO13696, read-out: Minimum Inhibitory Concentration, horse serum 0%, inoculum 10^6): 0.4 µg/mL (≈ 1.28 µM)
MIC ([2]; IFO13696, read-out: Minimum Inhibitory Concentration, horse serum 0%, inoculum 10^8): 0.8 µg/mL (≈ 2.55 µM)
MIC ([2]; IFO13696, read-out: Minimum Inhibitory Concentration, horse serum 10%, inoculum 10^6): 0.4 µg/mL (≈ 1.28 µM)
MIC ([2]; IFO13696, read-out: Minimum Inhibitory Concentration, horse serum 10%, inoculum 10^8): 0.8 µg/mL (≈ 2.55 µM)
MIC ([2]; IFO13696, read-out: Minimum Inhibitory Concentration, horse serum 20%, inoculum 10^6): 0.4 µg/mL (≈ 1.28 µM)
MIC ([2]; IFO13696, read-out: Minimum Inhibitory Concentration, horse serum 20%, inoculum 10^8): 0.8 µg/mL (≈ 2.55 µM)
MIC ([2]; IFO13696, read-out: Minimum Inhibitory Concentration, horse serum 40%, inoculum 10^6): 0.4 µg/mL (≈ 1.28 µM)
MIC ([2]; IFO13696, read-out: Minimum Inhibitory Concentration, horse serum 40%, inoculum 10^8): 0.4 µg/mL (≈ 1.28 µM)
MIC ([3]; IFO12718, inoculum 10^6, read-out: Minimum Inhibitory Concentration): 0.4 µg/mL (≈ 1.28 µM)
MIC ([3]; IFO12718, inoculum 10^8, read-out: Minimum Inhibitory Concentration): 0.4 µg/mL (≈ 1.28 µM)
MIC ([4]; IFO12568, read-out: Minimum Inhibitory Concentration, inoculum 10^6): 25 µg/mL (≈ 79.8 µM)
MIC ([4]; IFO12568, read-out: Minimum Inhibitory Concentration, inoculum 10^8): 50 µg/mL (≈ 160 µM)
MIC ([5]; IFO12659, inoculum 10^6, read-out: Minimum Inhibitory Concentration): 0.2 µg/mL (≈ 0.638 µM)
MIC ([5]; IFO12659, inoculum 10^8, read-out: Minimum Inhibitory Concentration): 0.4 µg/mL (≈ 1.28 µM)
MIC ([6]; IFO12710, read-out: Minimum Inhibitory Concentration, inoculum 10^6): 1.6 µg/mL (≈ 5.11 µM)
MIC ([6]; IFO12710, read-out: Minimum Inhibitory Concentration, inoculum 10^8): 3.1 µg/mL (≈ 9.89 µM)
MIC [7]: 3.1 µg/mL (≈ 9.89 µM)
MIC ([8]; IFO12658, inoculum 10^6, read-out: Minimum Inhibitory Concentration): 0.2 µg/mL (≈ 0.638 µM)
MIC ([8]; IFO12658, inoculum 10^8, read-out: Minimum Inhibitory Concentration): 0.4 µg/mL (≈ 1.28 µM)
MIC ([9]; IFO12981, inoculum 10^6, read-out: Minimum Inhibitory Concentration): 0.2 µg/mL (≈ 0.638 µM)
MIC ([9]; IFO12981, inoculum 10^8, read-out: Minimum Inhibitory Concentration): 0.4 µg/mL (≈ 1.28 µM)
MIC ([10]; IFO13266, read-out: Minimum Inhibitory Concentration, inoculum 10^6): 0.2 µg/mL (≈ 0.638 µM)
MIC ([10]; IFO13266, read-out: Minimum Inhibitory Concentration, inoculum 10^8): 0.4 µg/mL (≈ 1.28 µM)
MIC [11, 20]: 1.6 µg/mL (≈ 5.11 µM)
MIC [11, 21]: 1.6 µg/mL (≈ 5.11 µM)
MIC [11, 22]: 1.6 µg/mL (≈ 5.11 µM)
MIC [11, 23]: 1.6 µg/mL (≈ 5.11 µM)
MIC [11, 24]: 1.6 µg/mL (≈ 5.11 µM)
MIC [11, 25]: 0.8 µg/mL (≈ 2.55 µM)
MIC [11, 26]: 0.4 µg/mL (≈ 1.28 µM)
MIC [11, 27]: 0.4 µg/mL (≈ 1.28 µM)
MIC [12, 28]: 50 µg/mL (≈ 160 µM)
MIC [12, 29]: 100 µg/mL (≈ 319 µM)
MIC [13, 28]: 3.1 µg/mL (≈ 9.89 µM)
MIC [13, 29]: 3.1 µg/mL (≈ 9.89 µM)
MIC ([14]; ATCC10145, read-out: Minimum Inhibitory Concentration, inoculum 1 × 10^6 cells/ml): 6.3 µg/mL (≈ 20.1 µM)
MIC ([14]; ATCC10145, read-out: Minimum Inhibitory Concentration, inoculum 1 × 10^8 cells/ml): 6.3 µg/mL (≈ 20.1 µM)
MIC (Escherichia Coli NIHJ; [28]): 0.4 µg/mL (≈ 1.28 µM)
MIC (Escherichia Coli NIHJ; [29]): 0.8 µg/mL (≈ 2.55 µM)
MIC ([15]; IIDS23, read-out: Minimum Inhibitory Concentration, inoculum 1 × 10^6 cells/ml): 50 µg/mL (≈ 160 µM)
MIC ([15]; IIDS23, read-out: Minimum Inhibitory Concentration, inoculum 1 × 10^8 cells/ml): 100 µg/mL (≈ 319 µM)
MIC (Hafnia alvei IFO 3731; IFO3731, read-out: Minimum Inhibitory Concentration, inoculum 1 × 10^6 cells/ml): 0.8 µg/mL (≈ 2.55 µM)
MIC (Hafnia alvei IFO 3731; IFO3731, read-out: Minimum Inhibitory Concentration, inoculum 1 × 10^8 cells/ml): 1.6 µg/mL (≈ 5.11 µM)
MIC ([16]; Yersinia enterocolitica, 03, read-out: Minimum Inhibitory Concentration, inoculum 1 × 10^6 cells/ml): 1.6 µg/mL (≈ 5.11 µM)
MIC ([16]; Yersinia enterocolitica, 03, read-out: Minimum Inhibitory Concentration, inoculum 1 × 10^8 cells/ml): 1.6 µg/mL (≈ 5.11 µM)
MIC [17]: 6.3 µg/mL (≈ 20.1 µM)
MIC [18, 20]: 3.1 µg/mL (≈ 9.89 µM)
MIC [18, 21]: 6.3 µg/mL (≈ 20.1 µM)
MIC [18, 22]: 3.1 µg/mL (≈ 9.89 µM)
MIC [18, 23]: 6.3 µg/mL (≈ 20.1 µM)
MIC [18, 24]: 3.1 µg/mL (≈ 9.89 µM)
MIC [18, 25]: 3.1 µg/mL (≈ 9.89 µM)
MIC [18, 26]: 1.6 µg/mL (≈ 5.11 µM)
MIC [18, 27]: 3.1 µg/mL (≈ 9.89 µM)
MIC ([19]; IFO12692, read-out: Minimum Inhibitory Concentration, horse serum 0%, inoculum 10^6): 1.6 µg/mL (≈ 5.11 µM)
MIC ([19]; IFO12692, read-out: Minimum Inhibitory Concentration, horse serum 0%, inoculum 10^8): 1.6 µg/mL (≈ 5.11 µM)
MIC ([19]; IFO12692, read-out: Minimum Inhibitory Concentration, horse serum 10%, inoculum 10^6): 1.6 µg/mL (≈ 5.11 µM)
MIC ([19]; IFO12692, read-out: Minimum Inhibitory Concentration, horse serum 10%, inoculum 10^8): 1.6 µg/mL (≈ 5.11 µM)
MIC ([19]; IFO12692, read-out: Minimum Inhibitory Concentration, horse serum 20%, inoculum 10^6): 0.4 µg/mL (≈ 1.28 µM)
MIC ([19]; IFO12692, read-out: Minimum Inhibitory Concentration, horse serum 20%, inoculum 10^8): 0.8 µg/mL (≈ 2.55 µM)
MIC ([19]; IFO12692, read-out: Minimum Inhibitory Concentration, horse serum 40%, inoculum 10^6): 0.4 µg/mL (≈ 1.28 µM)
MIC ([19]; IFO12692, read-out: Minimum Inhibitory Concentration, horse serum 40%, inoculum 10^8): 0.4 µg/mL (≈ 1.28 µM)
